Experimental findings from patent US5057523A, “Dipeptide quinolone derivatives” (Abbott Laboratories, priority 1989, dated 1991) are described below.

Some results are limits rather than exact numbers.

For orientation: MIC means the lowest concentration found to suppress growth. A lower MIC goes with greater potency.

The subject of series [1] is Stap. Aureus CMX 553. Put plainly: Second in vitro test, MIC in Brain Heart Infusion Broth (BHIB).
Protocol: (§1) The in vitro antibacterial activity of the test compounds was determined by conventional agar dilution procedures. The organisms were grown overnight in brain-heart infusion (BHI) broth (Difco 0037-01-6) at 36° C. Twofold dilutions of the stock solution (2000 mcg/mL) of the test compound were made in BHI agar to obtain a test concentration ranging from 200 to 0.005 mcg/mL. The plate was inoculated with approximately 10^4 organisms. It was then incubated at 36° C. for 18 h.
Series [2] concerns Ps. Aeruginosa A5007. Described as above.
Protocol: as §1
Series [3] deals with P. Aeruginosa A5007. Put plainly: Acute mouse protection test. Type of series: in vivo. The conditions noted are these: mice infected intraperitoneally with P. Aeruginosa A5007, dosed at 1 and 5 hours post-infection.
For series [4], the system named is Strep pyogenes EES 61. Put plainly: Second in vitro test, MIC in Brain Heart Infusion Broth (BHIB).
Protocol: as §1
In series [5] the test system is E. Coli Juhl. The description is as above.
Protocol: as §1
Series [6] can be described thus: Conversion of prodrug to parent drug in whole blood at 37° C. The class given is in vitro ADME. The note with it: conversion to parent drug in dog whole blood at 37° C.; seconds; two values = two prodrug peaks. The method, then: An aqueous solution of prodruq (Z) is spiked into fresh whole blood containing sodium heparin as an anticoagulant. The sample is mixed gently by inversion and placed in a 37° waterbath. At selected time intervals an 0.5 ml aliquot of blood is removed and placed in a chilled 1.5 ml centrifuge tube (ice temperature). Samples are centrifuges at 13,000 rpm for two minutes to separate plasma. An 0.2 ml aliquot of the plasma sample is combined with 0.2 ml internal standard (7-(4-amino-2-methyl-1-pyrrolidinyl)-1-(2,4-difluorophenyl)-6-fluoro-1,4-d ihydro-4-oxo-1,8-naphthyridine-3-carboxylic acid in 0.2 M sodium phosphate pH 7.2 buffer) and 6 mls CH2 Cl2 :EtoH (9:1 by volume). Samples are capped and shaken gently for 10 minutes. Samples are centrifuqes at 2500 rpm for 10 minutes (4° C.). The aqueous layer is aspirated to waste and the organic layer is transferred to a conical centrifuge tube and evaporated to dryness with a stream of dry air and low heat […]. Samples are reconstituted with 0.2 ml mobile phase followed by vortexing. Samples are centrifuqes at 2500 rpm for 10 minutes to separate precipitate. The supernatant is transferred to a WISP vial with plastic insert for HPLC analysis.

Series [7] can be described thus: Aqueous solubility (water and pH 7.4). The conditions noted are these: the sign > refers to an approximate value, solubility may be within 10% higher.
Series [8] relates to E. Coli Juhl. Put plainly: Acute mouse protection test. The class given is in vivo. The conditions noted are these: mice infected intraperitoneally with E. Coli JUHL, dosed at 1 and 5 hours post-infection.
Series [9] concerns Stap. Aureus NCTC 10649. Put plainly: Acute mouse protection test. Type of series: in vivo. The conditions noted are these: mice infected intraperitoneally with Stap. Aureus NCTC 10649, dosed at 1 and 5 hours post-infection.
Series [10] in a line: Plasma level in dog after oral dose. Type of series: in vivo. The note with it: 10 mg equivalent/kg oral dose, HPLC.
Description: The plasma samples were collected and determined by the HPLC analysis.

Turning to `CCC[C@H](NC(=O)[C@@H](N)CCC)C(=O)NC1CCN(c2nc3c(cc2F)c(=O)c(C(=O)O)cn3-c2ccc(F)cc2F)C1.Cl` (stereo partly drawn) [Example 3b, 7-(3-L-Norvaline-L-Norvalineamino-1-pyrrolidinyl)-1-(2,4-difluorophenyl)-6-fluoro-1,4-dihydro-4-oxo-1,8-naphthyridine-3-carboxylic acid hydrochloride], the MIC amounted to 12.5 µg/mL in series [1], 50 µg/mL in series [2], 12.5 µg/mL in [4] and 25 µg/mL in series [5]. Further, the “Oral (ED50)” value in [3] was found to be 9.1 mg/kg/day; in series [8], 4.0 mg/kg/day; in [9], 1.8 mg/kg/day. Besides, the “Half Life Dog” value in series [6] is 86.5 s. For the same molecule, the “Water Solubility” value in series [7] is greater than 40 mg/mL. In addition, the “C max (range)” value in [10] (maximum plasma concentration) is given as 1.9 (1.5-2.2) mcg/ml. In addition, the “AUC (0-32 h)” value in [10] (plasma, 0-32 h) came to 10.2 µg·h/mg.
